Changes are numbered by the printed parent chain. The source made the active and inactive calls. No cut-off for these calls is given here. Positions of bridges follow the written chain, without caps; N, C: chain ends. Residues, ends and D or L forms follow the SMILES beside them.
Legend:
[1] = target: T1, Melanoma-associated antigen 4 (Homo sapiens, UniProt P43358); assay: Binding affinity to MAGEA4 (unknown origin) expressed in Escherichia coli BL21-(DE3) by isothermal titration calorimetry
T1 sequence (P43358 whole entry): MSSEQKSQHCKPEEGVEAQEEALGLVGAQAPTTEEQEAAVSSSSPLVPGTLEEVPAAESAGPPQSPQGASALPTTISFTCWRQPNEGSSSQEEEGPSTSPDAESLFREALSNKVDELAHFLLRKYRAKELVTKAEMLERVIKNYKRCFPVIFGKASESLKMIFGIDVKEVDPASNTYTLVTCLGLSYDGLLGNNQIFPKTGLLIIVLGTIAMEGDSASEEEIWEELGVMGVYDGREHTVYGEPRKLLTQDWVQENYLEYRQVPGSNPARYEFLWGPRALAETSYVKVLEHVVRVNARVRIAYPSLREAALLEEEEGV

[2] = target: T1, Melanoma-associated antigen 4; assay: Binding affinity to recombinant N-terminal His-tagged MAGEA4-MH domain (unknown origin) expressed in Escherichia coli BL21-(DE3) by isothermal titration calorimetry
[3] = tested on: T2, Melanoma-associated antigen 4 (Homo sapiens), P43358 [I205A]; assay: Binding affinity to recombinant N-terminal His-tagged MAGEA4-MH domain I205A mutant (unknown origin) expressed in Escherichia coli BL21-(DE3) assessed as increase in thermal stability by SYPRO orange dye based differential scanning fluorimetry; conditions: dose <= 10.0 µM
T2 sequence (whole entry): T1 sequence (P43358 whole entry) with I205A

[4] = tested on: T3, Melanoma-associated antigen 4 (Homo sapiens), P43358 [E225A]; assay: Binding affinity to recombinant N-terminal His-tagged MAGEA4-MH domain E225A mutant (unknown origin) expressed in Escherichia coli BL21-(DE3) assessed as increase in thermal stability by SYPRO orange dye based differential scanning fluorimetry; conditions: dose <= 10.0 µM
T3 sequence (whole entry): T1 sequence (P43358 whole entry) with E225A

[5] = tested on: T4, Melanoma-associated antigen 4 (Homo sapiens), P43358 [V294A]; assay: Binding affinity to recombinant N-terminal His-tagged MAGEA4-MH domain V294A mutant (unknown origin) expressed in Escherichia coli BL21-(DE3) assessed as increase in thermal stability by SYPRO orange dye based differential scanning fluorimetry; conditions: dose <= 10.0 µM
T4 sequence (whole entry): T1 sequence (P43358 whole entry) with V294A

[6] = tested on: T5, Melanoma-associated antigen 4 (Homo sapiens), P43358 [R297A]; assay: Binding affinity to recombinant N-terminal His-tagged MAGEA4-MH domain R297A mutant (unknown origin) expressed in Escherichia coli BL21-(DE3) assessed as increase in thermal stability by SYPRO orange dye based differential scanning fluorimetry; conditions: dose <= 10.0 µM
T5 sequence (whole entry): T1 sequence (P43358 whole entry) with R297A

[7] = tested on: T6, Melanoma-associated antigen 4 (Homo sapiens), P43358 [R299A]; assay: Binding affinity to recombinant N-terminal His-tagged MAGEA4-MH domain R299A mutant (unknown origin) expressed in Escherichia coli BL21-(DE3) assessed as increase in thermal stability by SYPRO orange dye based differential scanning fluorimetry; conditions: dose <= 10.0 µM
T6 sequence (whole entry): T1 sequence (P43358 whole entry) with R299A

Homo sapiens = organism: Homo sapiens; assay: Inhibition of Eu-W1024 streptavidin-labeled 6 xHis-tagged MAGEA4-MH domain M161A mutant (unknown origin) expressed in Escherichia coli BL21-(DE3) interaction with Ulight-labeled GST-tagged RAD18 (unknown origin) (267 to 402 residues) at 1 uM by LANCE TR-FRET assay
[8] = Inhibition of Eu-W1024 streptavidin-labeled 6 xHis-tagged MAGEA4-MH domain (unknown origin) expressed in Escherichia coli BL21-(DE3)/GST-tagged RAD18 (unknown origin) (267 to 402 residues) interaction using Ulight-anti-GST antibody incubated for 30 to 60 mins by LANCE TR-FRET assay; parameters: species or system Homo sapiens

Kd [1]: 36.8 nM
Kd [2]: 9.7 nM
Tm [3]: < 3.5 °C
Tm [4]: < 3.5 °C
Tm [5]: < 3.5 °C
Tm [6]: < 3.5 °C
Tm [7]: < 3.5 °C
inhibition (Homo sapiens): Active
IC50 [8]: 3.65 nM
SMILES: CC[C@H](C)[C@@H]1NC(=O)[C@H](Cc2ccc(O)cc2)NC(=O)CSC[C@@H](C(N)=O)NC(=O)[C@H](CC(N)=O)NC(=O)[C@H](Cc2cnc[nH]2)NC(=O)[C@H](Cc2ccc(O)cc2)NC(=O)[C@H](CC(=O)O)NC(=O)[C@H](Cc2ccc(O)cc2)NC(=O)[C@H](CC(C)C)NC(=O)[C@H](CCCNC(=N)N)NC1=O ({CH2CO}-YIRLYDYHNC-NH2; thioether N-10)

Reference: ChEMBL document CHEMBL5154904, “Discovery and Structural Basis of the Selectivity of Potent Cyclic Peptide Inhibitors of MAGE-A4” (J Med Chem, 2022)
